The record followed here is ChEMBL document CHEMBL1909046, “DrugMatrix in vitro pharmacology data”.

For experiment [1], the target named is T1, Alpha-1A adrenergic receptor (Rattus norvegicus, UniProt P43140).
T1 sequence (P43140 whole entry): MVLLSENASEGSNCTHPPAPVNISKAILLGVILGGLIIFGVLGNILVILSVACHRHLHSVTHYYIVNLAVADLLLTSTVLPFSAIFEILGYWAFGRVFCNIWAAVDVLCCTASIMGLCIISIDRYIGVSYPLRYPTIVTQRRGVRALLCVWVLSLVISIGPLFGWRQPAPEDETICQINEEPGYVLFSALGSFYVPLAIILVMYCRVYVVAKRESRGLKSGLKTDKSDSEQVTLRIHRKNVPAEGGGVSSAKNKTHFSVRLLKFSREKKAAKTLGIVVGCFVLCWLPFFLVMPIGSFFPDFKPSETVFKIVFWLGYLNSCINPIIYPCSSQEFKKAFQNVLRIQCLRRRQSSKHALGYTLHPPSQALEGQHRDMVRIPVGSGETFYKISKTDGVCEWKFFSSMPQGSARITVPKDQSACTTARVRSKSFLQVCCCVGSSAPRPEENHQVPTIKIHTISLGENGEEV
Briefly: DRUGMATRIX: Alpha-1A adrenergic receptor radioligand binding (ligand: prazosin). Format: cell membranes, Wistar, Submaxillary gland, Membrane. The settings on record: Not Active = under 50% inhibition at 10 µM.

A further experiment has as its target Substance-P receptor (Homo sapiens, UniProt P25103). In kind it is cell membranes, Membrane. As to conditions: cho. Further: in other assays of this panel Not Active means under 50% inhibition at 10 µM.
Experiment [2] deals with C-C chemokine receptor type 2 (Homo sapiens, UniProt P41597). In kind it is cell membranes, CHO-K1, Membrane. As to conditions: cho-k1.
Another experiment deals with D(1A) dopamine receptor (Homo sapiens, UniProt P21728). Briefly: DRUGMATRIX: Dopamine D1 radioligand binding (ligand: [3H] SCH-23390). In kind it is cell membranes, CHO, Membrane. As to conditions: Not Active = under 50% inhibition at 10 µM; for Ki: read-out: Ki.
The target in experiment [3] is T2, Amine oxidase [flavin-containing] A (Homo sapiens, UniProt P21397).
T2 sequence (P21397 whole entry): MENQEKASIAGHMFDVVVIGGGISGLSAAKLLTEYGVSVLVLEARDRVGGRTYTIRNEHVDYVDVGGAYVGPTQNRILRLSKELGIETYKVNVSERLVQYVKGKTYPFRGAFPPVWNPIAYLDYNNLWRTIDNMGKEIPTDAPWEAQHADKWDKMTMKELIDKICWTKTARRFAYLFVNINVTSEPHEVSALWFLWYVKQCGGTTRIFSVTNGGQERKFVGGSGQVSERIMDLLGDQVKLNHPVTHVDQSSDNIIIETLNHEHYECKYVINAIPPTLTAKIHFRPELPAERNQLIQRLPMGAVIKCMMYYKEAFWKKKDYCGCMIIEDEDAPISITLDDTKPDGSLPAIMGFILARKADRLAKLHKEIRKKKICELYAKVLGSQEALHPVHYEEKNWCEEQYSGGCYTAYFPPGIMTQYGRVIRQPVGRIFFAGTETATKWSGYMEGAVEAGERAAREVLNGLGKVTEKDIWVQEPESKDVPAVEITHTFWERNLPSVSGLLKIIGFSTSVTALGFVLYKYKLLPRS
Briefly: DRUGMATRIX: Monoamine Oxidase MAO-A enzyme inhibition (substrate: Kynuramine). The settings on record: Not Active = under 50% inhibition at 10 µM. Also noted: species or system BTI-TN-5B1-4.

The target of experiment [4] is T3, 5-hydroxytryptamine receptor 1A (Rattus norvegicus, UniProt P19327). Further: in other assays of this panel Not Active means under 50% inhibition at 10 µM.
T3 sequence (P19327 whole entry): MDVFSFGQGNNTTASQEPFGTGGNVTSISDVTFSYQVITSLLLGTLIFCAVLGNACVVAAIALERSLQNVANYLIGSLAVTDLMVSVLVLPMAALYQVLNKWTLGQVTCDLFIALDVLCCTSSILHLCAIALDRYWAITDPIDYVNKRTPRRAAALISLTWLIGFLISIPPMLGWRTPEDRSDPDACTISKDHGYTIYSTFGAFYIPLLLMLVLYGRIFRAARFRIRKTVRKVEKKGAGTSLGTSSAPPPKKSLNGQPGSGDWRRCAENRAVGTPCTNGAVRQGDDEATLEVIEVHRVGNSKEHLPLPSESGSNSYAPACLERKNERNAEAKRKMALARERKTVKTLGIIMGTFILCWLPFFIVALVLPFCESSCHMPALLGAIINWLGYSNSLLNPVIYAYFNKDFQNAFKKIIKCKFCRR
In kind it is cell membranes, CHO-K1, Membrane. As to conditions: for Ki: read-out: Ki.

Chain of D(1A) dopamine receptor (P21728 whole entry): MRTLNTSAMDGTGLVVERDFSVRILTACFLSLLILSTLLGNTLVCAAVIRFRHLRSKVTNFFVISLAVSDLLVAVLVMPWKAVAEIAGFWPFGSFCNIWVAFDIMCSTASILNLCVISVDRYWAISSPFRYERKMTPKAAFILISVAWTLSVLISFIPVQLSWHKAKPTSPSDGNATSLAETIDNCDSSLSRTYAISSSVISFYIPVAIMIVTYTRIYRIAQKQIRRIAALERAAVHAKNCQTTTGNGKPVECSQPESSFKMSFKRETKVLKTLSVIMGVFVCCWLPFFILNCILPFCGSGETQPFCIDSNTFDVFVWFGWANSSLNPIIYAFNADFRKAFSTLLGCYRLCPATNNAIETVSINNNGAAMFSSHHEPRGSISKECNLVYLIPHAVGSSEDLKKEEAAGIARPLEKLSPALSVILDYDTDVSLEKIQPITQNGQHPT
Chain of C-C chemokine receptor type 2 (P41597 whole entry): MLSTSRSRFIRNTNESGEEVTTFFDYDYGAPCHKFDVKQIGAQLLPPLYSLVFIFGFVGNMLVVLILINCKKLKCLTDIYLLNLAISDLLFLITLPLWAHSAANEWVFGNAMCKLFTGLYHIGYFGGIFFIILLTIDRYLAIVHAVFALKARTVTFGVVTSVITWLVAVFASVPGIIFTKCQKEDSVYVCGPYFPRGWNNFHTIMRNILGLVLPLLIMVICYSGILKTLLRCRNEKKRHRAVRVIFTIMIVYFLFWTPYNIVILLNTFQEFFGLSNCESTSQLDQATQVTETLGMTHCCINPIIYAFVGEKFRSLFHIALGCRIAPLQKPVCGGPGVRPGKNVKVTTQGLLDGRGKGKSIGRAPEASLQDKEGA
Chain of Substance-P receptor (P25103 whole entry): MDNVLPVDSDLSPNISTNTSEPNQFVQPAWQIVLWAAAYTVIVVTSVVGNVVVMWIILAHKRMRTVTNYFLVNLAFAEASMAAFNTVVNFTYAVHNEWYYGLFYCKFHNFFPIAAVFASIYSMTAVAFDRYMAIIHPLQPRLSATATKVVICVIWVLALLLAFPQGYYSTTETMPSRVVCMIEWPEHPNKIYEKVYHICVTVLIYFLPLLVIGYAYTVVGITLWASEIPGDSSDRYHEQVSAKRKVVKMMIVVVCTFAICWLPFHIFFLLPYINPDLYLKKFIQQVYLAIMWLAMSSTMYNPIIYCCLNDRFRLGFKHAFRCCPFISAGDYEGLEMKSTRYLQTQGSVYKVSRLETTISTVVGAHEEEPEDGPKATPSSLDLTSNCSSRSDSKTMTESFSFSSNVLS

Broadly, the IC50 is the concentration that gives 50% inhibition. `c1ccc(Cn2ccnc2)cc1`: the IC50 result (in experiment [1]; against Substance-P receptor; in experiment [2]; at D(1A) dopamine receptor (cho); in experiment [3] (bti-tn-5b1-4); in experiment [4] (cho-k1)) was “Not Active” in each case.

Turning to `C[N+](C)(C)CCOP(=O)([O-])OC[C@H](O)CO`, the IC50 result (in experiment [1]; against Substance-P receptor; in experiment [2]; at D(1A) dopamine receptor (cho); in experiment [3] (bti-tn-5b1-4); in experiment [4] (cho-k1)) was “Not Active” throughout.

For the compound `NC(=O)CN1CCCC1=O`, the IC50 result (in experiment [1]; against Substance-P receptor; in experiment [2]; at D(1A) dopamine receptor (cho); in experiment [3] (bti-tn-5b1-4); in experiment [4] (cho-k1)) was “Not Active” each time.

Consider `OC[C@H]1OC2C3[C@@H](CO)OC(O[C@H]4[C@H](O)[C@@H](O)[C@@H](O[C@H]5[C@H](O)[C@@H](O)[C@@H](O[C@H]6[C@H](O)[C@@H](O)[C@@H](O[C@H]7[C@H](O)[C@@H](O)[C@@H](O[C@H]8[C@H](O)[C@@H](O)[C@@H](O[C@H]9[C@H](O)[C@@H](O)C(OC1[C@H](O)[C@H]2O)O[C@@H]9CO)O[C@@H]8CO)O[C@@H]7CO)O[C@@H]6CO)O[C@@H]5CO)O[C@@H]4CO)[C@H](O)[C@H]3O`, for which the IC50 entry (in experiment [1]; against Substance-P receptor; in experiment [2]; at D(1A) dopamine receptor (cho); in experiment [3] (bti-tn-5b1-4); in experiment [4] (cho-k1)) was “Not Active” each time.

For `CN(CCOc1ccc(C[C@H](Nc2ccccc2C(=O)c2ccccc2)C(=O)O)cc1)c1ccccn1`, the IC50 entry (in experiment [1]; against Substance-P receptor; in experiment [2]; on D(1A) dopamine receptor (cho); in experiment [3] (bti-tn-5b1-4); in experiment [4] (cho-k1)) was “Not Active” throughout.

In the case of `O=c1[nH]c2ccccc2c2ccccc12`, the half-maximal inhibitory concentration (IC50) result (in experiment [1]; against Substance-P receptor; in experiment [2]; at D(1A) dopamine receptor (cho); in experiment [3] (bti-tn-5b1-4); in experiment [4] (cho-k1)) was “Not Active” each time.

Consider `CO[C@H]1O[C@@H]2O[C@@]3(C)CC[C@H]4[C@H](C)CC[C@@H]([C@H]1C)[C@@]24OO3`, for which the IC50 result (in experiment [1]; on Substance-P receptor; in experiment [2]; at D(1A) dopamine receptor (cho); in experiment [3] (bti-tn-5b1-4); in experiment [4] (cho-k1)) was “Not Active” each time.

Regarding `Nc1ccc(Cc2ccc(N)cc2)cc1`, the IC50 result (in experiment [1]; against Substance-P receptor; in experiment [2]; on D(1A) dopamine receptor (cho); in experiment [3] (bti-tn-5b1-4); in experiment [4] (cho-k1)) was “Not Active” throughout.

In the case of `C=C(Cl)Cl` [1,1-DICHLOROETHENE], the IC50 result (in experiment [1]; at Substance-P receptor; in experiment [2]; at D(1A) dopamine receptor (cho); in experiment [3] (bti-tn-5b1-4); in experiment [4] (cho-k1)) was “Not Active” throughout.

`CC(=O)Nc1ccc2c(c1)Cc1ccccc1-2` [2-ACETYLAMINOFLUORENE]: the IC50 result in experiment [1] was “Not Active”; against Substance-P receptor it was “Not Active”; in experiment [2] it was “Not Active”; on D(1A) dopamine receptor (cho), “Not Active”; in experiment [3] (read-out: IC50) it was 59 nM; in experiment [4] (cho-k1), “Not Active”.

With `O=C(Nc1ccc(Cl)c(Cl)c1)c1cc(Cl)cc(Cl)c1O` [3,3',4',5-TETRACHLOROSALICYLANILIDE], the IC50 result (in experiment [1]; against Substance-P receptor; in experiment [2]; at D(1A) dopamine receptor (cho); in experiment [3] (bti-tn-5b1-4); in experiment [4] (cho-k1)) was “Not Active” each time.

In the case of `O=C(O)COC(=O)Cc1ccccc1Nc1c(Cl)cccc1Cl` [ACECLOFENAC], the IC50 entry (in experiment [1]; at Substance-P receptor; in experiment [2]; at D(1A) dopamine receptor (cho); in experiment [3] (bti-tn-5b1-4); in experiment [4] (cho-k1)) was “Not Active” in each case.

With `CCN1C[C@]2(COC)[C@H](O)C[C@H](OC)[C@@]34[C@@H]5C[C@@]6(O)[C@H](OC(=O)c7ccccc7)[C@@H]5[C@@](OC(C)=O)([C@@H]([C@H](OC)[C@H]23)[C@@H]14)[C@@H](O)[C@@H]6OC` [ACONITINE], the IC50 entry (in experiment [1]; against Substance-P receptor; in experiment [2]; at D(1A) dopamine receptor (cho); in experiment [3] (bti-tn-5b1-4); in experiment [4] (cho-k1)) was “Not Active” each time.

As to `CCO` [ALCOHOL], the IC50 entry (in experiment [1]; on Substance-P receptor; in experiment [2]; on D(1A) dopamine receptor (cho); in experiment [3] (bti-tn-5b1-4); in experiment [4] (cho-k1)) was “Not Active” in each case.

Take `OC[C@H]1O[C@@H]2O[C@H]3[C@H](O)[C@@H](O)[C@@H](O[C@H]4[C@H](O)[C@@H](O)[C@@H](O[C@H]5[C@H](O)[C@@H](O)[C@@H](O[C@H]6[C@H](O)[C@@H](O)[C@@H](O[C@H]7[C@H](O)[C@@H](O)[C@@H](O[C@H]1[C@H](O)[C@H]2O)O[C@@H]7CO)O[C@@H]6CO)O[C@@H]5CO)O[C@@H]4CO)O[C@@H]3CO` [ALFADEX]: the IC50 result (in experiment [1]; against Substance-P receptor; in experiment [2]; on D(1A) dopamine receptor (cho); in experiment [3] (bti-tn-5b1-4); in experiment [4] (cho-k1)) was “Not Active” throughout.

On to `Oc1ncnc2[nH]ncc12` [ALLOPURINOL], for which the IC50 entry (in experiment [1]; against Substance-P receptor; in experiment [2]; at D(1A) dopamine receptor (cho); in experiment [3] (bti-tn-5b1-4); in experiment [4] (cho-k1)) was “Not Active” in each case.

Broadly, the Ki is a dissociation constant, usually derived from enzyme kinetics or from competition with a known ligand. In the case of `COc1ccccc1OCCNCC(O)COc1cccc2[nH]c3ccccc3c12` (stereo unspecified) [CARVEDILOL], the IC50 result on Substance-P receptor was “Not Active”; in experiment [2], “Not Active”; at D(1A) dopamine receptor (read-out: IC50), 1500 nM; in experiment [3] (bti-tn-5b1-4) it was “Not Active”; in experiment [4] (read-out: IC50), 5.84 nM. For the same compound, the Ki at D(1A) dopamine receptor was 749 nM; in experiment [4], 3.34 nM.

Turning to `CC1(COc2ccc(CC3SC(=O)NC3=O)cc2)CCCCC1` (stereo unspecified) [CIGLITAZONE], the IC50 result in experiment [1] was “Not Active”; on Substance-P receptor, “Not Active”; in experiment [2], “Not Active”; in experiment [3] (read-out: IC50), 29200 nM; in experiment [4] (cho-k1) it was “Not Active”.

On to `CNC[C@H](O)c1ccc(O)c(O)c1` [EPINEPHRINE], for which the IC50 entry (at Substance-P receptor; in experiment [2]; at D(1A) dopamine receptor (cho); in experiment [3] (bti-tn-5b1-4); in experiment [4] (cho-k1)) was “Not Active” in each case.

Turning to `Clc1cc(Cl)c(OCC#CI)cc1Cl` [HALOPROGIN], the IC50 entry (in experiment [1]; on Substance-P receptor; in experiment [2]; in experiment [3] (bti-tn-5b1-4); in experiment [4] (cho-k1)) was “Not Active” throughout.

As for `Cc1cc(C(C)(C)C)c(O)c(C)c1CC1=NCCN1` [OXYMETAZOLINE], the IC50 entry on Substance-P receptor is “Not Active”; in experiment [2] it was “Not Active”; on D(1A) dopamine receptor (cho) it was “Not Active”; in experiment [3] (bti-tn-5b1-4), “Not Active”; in experiment [4] (read-out: IC50) it was 5.61 nM. The Ki in experiment [4] amounted to 3.21 nM.

For the compound `CC(CN1c2ccccc2Sc2ccccc21)N(C)C` (stereo unspecified) [PROMETHAZINE], the IC50 result against Substance-P receptor is “Not Active”; in experiment [2], “Not Active”; on D(1A) dopamine receptor (read-out: IC50), 2740 nM; in experiment [3] (bti-tn-5b1-4), “Not Active”; in experiment [4] (read-out: IC50), 2600 nM. In addition, the Ki on D(1A) dopamine receptor was 1370 nM; in experiment [4], 1480 nM.
